Data: PubChem BioAssay (NCI)
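Here, GI50 denotes the concentration required for 50% inhibition of growth. At the TGI there is no net growth.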

Assays:
Assay in all cases: inhibition of tumour cell growth, NCI panel, 384-well format
NCI-H226 lung = test system: NCI-H226 lung
SNB-19 CNS = test system: SNB-19 CNS
T-47D breast = test system: T-47D breast
OVCAR-5 ovarian = test system: OVCAR-5 ovarian
M14 melanoma = test system: M14 melanoma
IGROV1 ovarian = test system: IGROV1 ovarian
MALME-3M melanoma = test system: MALME-3M melanoma
SF-539 CNS = test system: SF-539 CNS
LOX IMVI melanoma = test system: LOX IMVI melanoma
OVCAR-4 ovarian = test system: OVCAR-4 ovarian
COLO 205 colon = test system: COLO 205 colon
HT29 colon = test system: HT29 colon
NCI-H460 NSCLC = test system: NCI-H460 NSCLC
HL-60(TB) leukemia = test system: HL-60(TB) leukemia
PC-3 prostate = test system: PC-3 prostate
RXF 393 renal = test system: RXF 393 renal
OVCAR-3 ovarian = test system: OVCAR-3 ovarian
HCC-2998 colon = test system: HCC-2998 colon
TK-10 renal = test system: TK-10 renal
MCF7 breast = test system: MCF7 breast
BT-549 breast = test system: BT-549 breast
MDA-MB-468 breast = test system: MDA-MB-468 breast
DU-145 prostate = test system: DU-145 prostate
SK-OV-3 ovarian = test system: SK-OV-3 ovarian
SK-MEL-5 melanoma = test system: SK-MEL-5 melanoma
EKVX NSCLC = test system: EKVX NSCLC
HS 578T breast = test system: HS 578T breast
NCI/ADR-RES ovarian = test system: NCI/ADR-RES ovarian

COc1cc2c(Nc3ccc(Br)cc3F)ncnc2cc1OCC1CCN(C)CC1
GI50 (NCI-H226 lung): 1.3 µM
TGI (NCI-H226 lung): 5.47 µM
GI50 (SNB-19 CNS): 10.6 µM
TGI (SNB-19 CNS): > 100 µM
GI50 (T-47D breast): 1.33 µM
TGI (T-47D breast): 8.79 µM
GI50 (OVCAR-5 ovarian): 2.19 µM
TGI (OVCAR-5 ovarian): 11.5 µM
GI50 (M14 melanoma): 1.98 µM
TGI (M14 melanoma): 3.42 µM
GI50 (IGROV1 ovarian): 0.262 µM
TGI (IGROV1 ovarian): 1.04 µM
GI50 (MALME-3M melanoma): 1.77 µM
TGI (MALME-3M melanoma): 3.16 µM
GI50 (SF-539 CNS): 2.64 µM
TGI (SF-539 CNS): 8.64 µM
GI50 (LOX IMVI melanoma): 2.04 µM
TGI (LOX IMVI melanoma): 4.24 µM
GI50 (OVCAR-4 ovarian): 2.3 µM
TGI (OVCAR-4 ovarian): 10.2 µM
GI50 (COLO 205 colon): 2.35 µM
TGI (COLO 205 colon): 6.01 µM
GI50 (HT29 colon): 1.78 µM
TGI (HT29 colon): 3.61 µM
GI50 (NCI-H460 NSCLC): 4.66 µM
TGI (NCI-H460 NSCLC): 16 µM
GI50 (HL-60(TB) leukemia): 2.09 µM
TGI (HL-60(TB) leukemia): 3.53 µM
GI50 (PC-3 prostate): 3.46 µM
TGI (PC-3 prostate): 18.4 µM
GI50 (RXF 393 renal): 0.836 µM
TGI (RXF 393 renal): 2.48 µM
GI50 (OVCAR-3 ovarian): 1.05 µM
TGI (OVCAR-3 ovarian): 4.52 µM
GI50 (HCC-2998 colon): 2.39 µM
TGI (HCC-2998 colon): 5.59 µM
GI50 (TK-10 renal): 1.98 µM
TGI (TK-10 renal): 5.1 µM
GI50 (MCF7 breast): 2.78 µM
TGI (MCF7 breast): 11.1 µM
GI50 (BT-549 breast): 2.24 µM
TGI (BT-549 breast): 5.06 µM
GI50 (MDA-MB-468 breast): 0.551 µM
TGI (MDA-MB-468 breast): 1.92 µM
GI50 (DU-145 prostate): 2.22 µM
TGI (DU-145 prostate): 12.4 µM
GI50 (SK-OV-3 ovarian): 1.93 µM
TGI (SK-OV-3 ovarian): 6.31 µM
GI50 (SK-MEL-5 melanoma): 1.54 µM
TGI (SK-MEL-5 melanoma): 3.02 µM
GI50 (EKVX NSCLC): 0.943 µM
TGI (EKVX NSCLC): 8.63 µM
GI50 (HS 578T breast): 1.52 µM
TGI (HS 578T breast): 2.92 µM
GI50 (NCI/ADR-RES ovarian): 2.24 µM
TGI (NCI/ADR-RES ovarian): 6.43 µM
